Data from patent US11229623B2 (GlaxoSmithKline Intellectual Property (No.2) Limited, priority 2016, dated 2022).

Biological target: T1, human TRPV4 (Homo sapiens, UniProt Q9HBA0)
T1 construct: expressed in transfected cells; host or cells: BHK/AC9 cells transduced with BacMam virus
Test: FLIPR assay for hTRPV4 expressed in BHK cells: inhibition of Agonist Compound-induced calcium signal
Type: cell-based
Settings: hTRPV4 FLIPR assay; average in at least one set of experimental runs; read-out: average IC50
Method: FLIPR Assay for hTRPV4 Expressed in BHK Cells:
TRPV4 channel activation results in an influx of divalent and monovalent cations including calcium. The resulting changes in intracellular calcium were monitored using a calcium specific fluorescent dye Fluo-4 (MDS Analytical Technologies). BHK/AC9 cells transduced with BacMam virus expressing the human TRPV4 gene at a MOI of 78 were plated in a 384 well poly-D lysine coated plate (15,000 cells/well in 50 μL culture medium containing DMEM/F12 with 15 mM HEPES, 10% FBS, 1% Penicillin-Streptomycin and 1% L-glutamine). Cells were incubated for 24 hours at 37° C. and 5% CO2. Culture medium was then aspirated using a Tecan plate-washer and replaced with 20 μL/well of dye loading buffer: HBSS, 500 μM Brilliant Black (MDS Analytical Technologies), and 2 μM Fluo-4 AM. Dye loaded plates were then incubated in the dark at room temperature for 1-1.5 hours.

T1 sequence (Q9HBA0 whole entry): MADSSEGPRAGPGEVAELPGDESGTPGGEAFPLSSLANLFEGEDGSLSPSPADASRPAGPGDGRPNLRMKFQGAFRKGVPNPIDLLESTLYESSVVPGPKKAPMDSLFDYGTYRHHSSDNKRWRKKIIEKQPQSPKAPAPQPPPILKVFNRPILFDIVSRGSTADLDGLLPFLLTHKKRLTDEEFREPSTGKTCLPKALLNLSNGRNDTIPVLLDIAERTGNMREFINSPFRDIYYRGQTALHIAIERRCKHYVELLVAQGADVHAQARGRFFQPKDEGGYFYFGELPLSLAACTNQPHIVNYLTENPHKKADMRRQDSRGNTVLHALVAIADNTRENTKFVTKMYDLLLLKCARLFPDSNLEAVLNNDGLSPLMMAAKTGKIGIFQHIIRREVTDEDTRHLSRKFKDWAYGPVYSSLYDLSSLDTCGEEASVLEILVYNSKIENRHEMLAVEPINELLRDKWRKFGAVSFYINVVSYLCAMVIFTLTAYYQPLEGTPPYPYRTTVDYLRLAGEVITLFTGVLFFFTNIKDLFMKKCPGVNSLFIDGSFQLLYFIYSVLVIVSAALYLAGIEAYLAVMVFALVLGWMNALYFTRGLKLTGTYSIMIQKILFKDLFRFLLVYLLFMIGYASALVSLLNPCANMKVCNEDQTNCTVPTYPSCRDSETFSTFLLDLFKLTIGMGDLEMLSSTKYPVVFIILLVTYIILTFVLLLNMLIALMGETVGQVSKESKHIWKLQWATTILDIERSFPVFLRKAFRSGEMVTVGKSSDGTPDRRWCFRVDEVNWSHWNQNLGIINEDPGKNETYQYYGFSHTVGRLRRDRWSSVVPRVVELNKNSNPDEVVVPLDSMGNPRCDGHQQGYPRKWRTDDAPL

SMILES | IC50
N#Cc1cc(C(F)(F)F)ccc1S(=O)(=O)N1C[C@H](Oc2ccc(Cl)cc2)[C@](O)(CO)C1 [Example 6, 2-(((3R,4S)-4-(4-chlorophenoxy)-3-hydroxy-3-(hydromethyl)pyrrolidin-1-yl)sulfonyl)-5-(trifluoromethyl)benzonitrile] | 3 nM

Same assay, conditions: hTRPV4 in BHK/AC9 cells, FLIPR calcium signal, agonist at EC80; reported as range class; read-out: IC50

SMILES | IC50
N#Cc1ccc(O[C@H]2CN(S(=O)(=O)c3ccc(C(F)(F)F)cc3C#N)C[C@@]2(O)CO)cc1F [Example 1, 4-(((3S,4R)-1-((2-cyano-4-(trifluoromethyl)phenyl)sulfonyl)-4-hydroxy-4-(hydroxymethyl)pyrrolidin-3-yl)oxy)-2-fluorobenzonitrile] | 0.1 to 10 nM
N#Cc1ccc(O[C@H]2CN(S(=O)(=O)c3ccc(Cl)cc3Cl)C[C@@]2(O)CO)cc1F [Example 2, 4-(((3S,4R)-1-((2,4-dichlorophenyl)sulfonyl)-4-hydroxy-4-(hydroxymethyl)pyrrolidin-3-yl)oxy)-2-fluorobenzonitrile] | 0.1 to 10 nM
N#Cc1ccc(O[C@H]2CN(S(=O)(=O)c3ccc(Cl)cc3C#N)C[C@@]2(O)CO)cc1F [Example 3, 4-(((3S,4R)-1-((4-chloro-2-cyanophenyl)sulfonyl)-4-hydroxy-4-(hydroxymethyl)pyrrolidin-3-yl)oxy)-2-fluorobenzonitrile] | 0.1 to 10 nM
O=S(=O)(c1ccc(Cl)cc1Cl)N1C[C@H](Oc2ccc(F)c(F)c2)[C@](O)(CO)C1 [Example 4, (3R,4S)-1-((2,4-dichlorophenyl)sulfonyl)-4-(3,4-difluorophenoxy)-3-(hydroxymethyl)pyrrolidin-3-ol] | 10 to 100 nM
N#Cc1ccc(O[C@H]2CN(S(=O)(=O)c3ccc(C(F)(F)F)nc3)C[C@@]2(O)CO)cc1F [Example 5, 2-fluoro-4-(((3S,4R)-4-hydroxy-4-(hydroxymethyl)-1-((6-(trifluoromethyl)pyridin-3-yl)sulfonyl)pyrrolidin-3-yl)oxy)benzonitrile] | 100 to 1000 nM
N#Cc1cc(C(F)(F)F)ccc1S(=O)(=O)N1C[C@H](Oc2ccc(Cl)cc2)[C@](O)(CO)C1 [Example 6, 2-(((3R,4S)-4-(4-chlorophenoxy)-3-hydroxy-3-(hydromethyl)pyrrolidin-1-yl)sulfonyl)-5-(trifluoromethyl)benzonitrile] | 0.1 to 10 nM
N#Cc1cc(C(F)(F)F)ccc1S(=O)(=O)N1C[C@H](Oc2ccc3nonc3c2)[C@](O)(CO)C1 [Example 7, 2-(((3R,4S)-4-(benzo[c][1,2,5]oxadiazol-5-yloxy)-3-hydroxy-3-(hydroxymethyl)pyrrolidin-1-yl)sulfonyl)-5-(trifluoromethyl)benzonitrile] | 0.1 to 10 nM
N#Cc1cc(Cl)ccc1S(=O)(=O)N1C[C@H](Oc2ccc(F)c(F)c2)[C@](O)(CO)C1 [Example 8, 5-chloro-2-(((3R,4S)-4-(3,4-difluorophenoxy)-3-hydroxy-3-(hydroxymethyl)pyrrolidin-1-yl)sulfonyl)benzonitrite] | 0.1 to 10 nM
N#Cc1ccc(O[C@H]2CN(S(=O)(=O)c3ccc(C(F)(F)F)cc3C#N)C[C@@]2(O)CO)c(F)c1 [Example 9, 2-(((3R,4S)-4-(4-cyano-2-fluorophenoxy)-3-hydroxy-3-(hydroxymethyl)pyrrolidin-1-yl)sulfonyl)-5-(trifluoromethyl)benzonitrile] | 0.1 to 10 nM
COc1cc(C#N)ccc1O[C@H]1CN(S(=O)(=O)c2ccc(C(F)(F)F)cc2C#N)C[C@@]1(O)CO [Example 10, 2-(((3R,4S)-4-(4-cyano-2-methoxyphenoxy)-3-hydroxy-3-(hydroxymethyl)pyrrolidin-1-yl)sulfonyl)-5-(trifluoromethyl)benzonitrile] | 10 to 100 nM
N#Cc1ccc(O[C@H]2CN(S(=O)(=O)c3ccc(C(F)(F)F)cc3C#N)C[C@@]2(O)CO)cc1C(F)(F)F [Example 11, 4-(((3S,4R)-1-((2-cyano-4-(trifluoromethyl)phenyl)sulfonyl)-4-hydroxy-4-(hydroxymethyl)pyrrolidin-3-yl)oxy)-2-(trifluoromethyl)benzonitrile] | 10 to 100 nM
CCOc1cc(C#N)ccc1O[C@H]1CN(S(=O)(=O)c2ccc(C(F)(F)F)cc2C#N)C[C@@]1(O)CO [Example 12, 2-(((3R,4S)-4-(4-cyano-2-ethoxyphenoxy)-3-hydroxy-3-(hydroxymethyl)pyrrolidin-1-yl)sulfonyl)-5-(trifluoromethyl)benzonitrile] | 0.1 to 10 nM
N#Cc1ncc(O[C@H]2CN(S(=O)(=O)c3ccc(C(F)(F)F)cc3C#N)C[C@@]2(O)CO)cn1 [Example 13, 5-(((3S,4R)-1-((2-cyano-4-(trifluoromethyl)phenyl)sulfonyl)-4-hydroxy-4-(hydroxymethyl)pyrrolidin-3-yl)oxy)pyrimidine-2-carbonitrile] | 10 to 100 nM
N#Cc1ccc(O[C@H]2CN(S(=O)(=O)c3ccc(C(F)(F)F)cc3C#N)C[C@@]2(O)CO)c(Cl)c1 [Example 14, 2-(((3R,4S)-4-(2-chloro-4-cyanophenoxy)-3-hydroxy-3-(hydroxymethyl)pyrrolidin-1-yl)sulfonyl)-5-(trifluoromethyl)benzonitrile] | 0.1 to 10 nM
N#Cc1cc(C(F)(F)F)ccc1S(=O)(=O)N1C[C@H](Oc2ccc(C#N)c(F)c2F)[C@](O)(CO)C1 [Example 15, 4-(((3S,4R)-1-((2-cyano-4-(trifluoromethyl)phenyl)sulfonyl)-4-hydroxy-4-(hydroxymethyl)pyrrolidin-3-yl)oxy)-2,3-difluorobenzonitrile] | 0.1 to 10 nM
Cc1cc(C#N)ccc1O[C@H]1CN(S(=O)(=O)c2ccc(C(F)(F)F)cc2C#N)C[C@@]1(O)CO [Example 16, 2-(((3R,4S)-4-(4-cyano-2-methylphenoxy)-3-hydroxy-3-(hydroxymethyl)pyrrolidin-1-yl)sulfonyl)-5-(trifluoromethyl)benzonitrile] | 0.1 to 10 nM
N#Cc1ccc(O[C@H]2CN(S(=O)(=O)c3ccc(C(F)(F)F)cc3C#N)C[C@@]2(O)CO)c(C(F)(F)F)c1 [Example 17, 2-(((3R,4S)-4-(4-cyano-2-(trifluoromethyl)phenoxy)-3-hydroxy-3-(hydroxymethyl)pyrrolidin-1-yl)sulfonyl)-5-(trifluoromethyl)benzonitrile] | 0.1 to 10 nM
N#Cc1ccc2cc(O[C@H]3CN(S(=O)(=O)c4ccc(C(F)(F)F)cc4C#N)C[C@@]3(O)CO)ccc2c1 [Example 18, 6-(((3S,4R)-1-((2-cyano-4-(trifluoromethyl)phenyl)sulfonyl)-4-hydroxy-4-(hydroxymethyl)pyrrolidin-3-yl)oxy)-2-naphthonitrile] | 10 to 100 nM
N#Cc1cc(F)c(O[C@H]2CN(S(=O)(=O)c3ccc(C(F)(F)F)cc3C#N)C[C@@]2(O)CO)cc1F [Example 19, 4-(((3S,4R)-1-((2-cyano-4-(trifluoromethyl)phenyl)sulfonyl)-4-hydroxy-4-(hydroxymethyl)pyrrolidin-3-yl)oxy)-2,5-difluorobenzonitrile] | 0.1 to 10 nM
N#Cc1cc(C(F)(F)F)ccc1S(=O)(=O)N1C[C@H](Oc2cc(F)c(C#N)c(F)c2)[C@](O)(CO)C1 [Example 20, 4-(((3S,4R)-1-((2-cyano-4-(trifluoromethyl)phenyl)sulfonyl)-4-hydroxy-4-(hydroxymethyl)pyrrolidin-3-yl)oxy)-2,6-difluorobenzonitrile] | 0.1 to 10 nM
N#Cc1ccc(O[C@H]2CN(S(=O)(=O)c3ccc(C(F)(F)F)cc3C#N)C[C@@]2(O)CO)cc1OC(F)(F)F [Example 21, 4-(((3S,4R)-1-((2-cyano-4-(trifluoromethyl)phenyl)sulfonyl)-4-hydroxy-4-(hydroxymethyl)pyrrolidin-3-yl)oxy)-2-(trifluoromethoxy)benzonitrile] | 10 to 100 nM
N#Cc1cc(Cl)ccc1S(=O)(=O)N1C[C@H](Oc2cc(F)c(F)c(F)c2)[C@](O)(CO)C1 [Example 22, 5-chloro-2-(((3R,4S)-3-hydroxy-3-(hydroxymethyl)-4-(3,4,5-trifluorophenoxy)pyrrolidin-1-yl)sulfonyl)benzonitrile] | 0.1 to 10 nM
